From patent US8802597B2, “Herbicidal pyrimidines” (E I du Pont de Nemours and Company, priority 2003, dated 2014)

How the values were obtained:
[1] = test system: barnyardgrass (Echinochloa crus-galli); test: Test E flooded paddy water application; assay type: in vivo; details: Flood, 21 days, scale 0 to 100 (0 no effect, 100 complete control)
Procedure, shortened: (§1)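 Weeds sown in sterilized Tama silt loam (2.6% organic matter), greenhouse 29.5/26.7° C, 16-h photoperiod; at 2.0–2.5-leaf stage pots flooded to 3 cm and compound added to paddy water. Visual rating vs untreated controls after 21 days, 0 (no effect) to 100 (complete control).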

[2] = test system: ducksalad (Heteranthera limosa); test: Test E flooded paddy water application; assay type: in vivo; details: Flood, 21 days, scale 0 to 100 (0 no effect, 100 complete control); for Plant response rating, Ducksalad: 16 g ai/ha
Procedure, shortened: as §1

[3] = test system: rice flatsedge (Cyperus iria); test: Test E flooded paddy water application; assay type: in vivo; details: Flood, 21 days, scale 0 to 100 (0 no effect, 100 complete control); for Plant response rating, Flatsedge, Rice: 16 g ai/ha
Procedure, shortened: as §1

[4] = test system: water seeded rice seedlings (Oryza sativa cv. ‘Japonica-M202’); test: Test E flooded paddy water application; assay type: in vivo; details: Flood, 21 days, scale 0 to 100 (0 no effect, 100 complete control); for Plant response rating, Rice, Water Seeded: 16 g ai/ha
Procedure, shortened: as §1

[5] = test system: smallflower umbrella sedge (Cyperus difformis); test: Test E flooded paddy water application; assay type: in vivo; details: Flood, 21 days, scale 0 to 100 (0 no effect, 100 complete control); for Plant response rating, Sedge, Umbrella: 16 g ai/ha
Procedure, shortened: as §1

[6] = test system: purple redstem (Ammannia coccinea); test: Test E flooded paddy water application; assay type: in vivo; details: Flood, 21 days, scale 0 to 100 (0 no effect, 100 complete control); for Plant response rating, Redstem: 16 g ai/ha
Procedure, shortened: as §1

[7] = test system: early watergrass (Echinochloa oryzoides); test: Test E flooded paddy water application; assay type: in vivo; details: Flood, 21 days, scale 0 to 100 (0 no effect, 100 complete control); for Plant response rating, Watergrass, Early: 16 g ai/ha
Procedure, shortened: as §1

[8] = test system: bearded (brdd.) sprangletop (Leptochloa fusca ssp. fascicularis); test: Test E flooded paddy water application; assay type: in vivo; details: Flood, 21 days, scale 0 to 100 (0 no effect, 100 complete control); for Plant response rating, Sprangletop, Brdd.: 16 g ai/ha
Procedure, shortened: as §1

[9] = test system: junglerice (Echinochloa colona); test: Test E flooded paddy water application; assay type: in vivo; details: Flood, 21 days, scale 0 to 100 (0 no effect, 100 complete control); for Plant response rating, Junglerice: 16 g ai/ha
Procedure, shortened: as §1

[10] = test system: transplanted rice seedlings (Oryza sativa cv. ‘Japonica-M202’); test: Test E flooded paddy water application; assay type: in vivo; details: Flood, 21 days, scale 0 to 100 (0 no effect, 100 complete control); for Plant response rating, Rice, Transplanted: 16 g ai/ha
Procedure, shortened: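 Greenhouse pots of Tama silt loam with weeds and rice at 2.0–2.5-leaf stage, flooded to 3 cm; compounds applied directly into paddy water, depth maintained. Visual rating versus untreated controls after 21 days, 0 (no effect) to 100 (complete control); 29.5/26.7 °C, 16-h photoperiod.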

[11] = test system: late watergrass (Echinochloa oryzicola); test: Test E flooded paddy water application; assay type: in vivo; details: Flood, 21 days, scale 0 to 100 (0 no effect, 100 complete control); for Plant response rating, Watergrass, Late: 16 g ai/ha
Procedure, shortened: as §1

## CCOC(=O)c1nc(-c2ccc(Br)cc2)nc(N)c1Cl [Compound 94, ethyl 6-amino-2-(4-bromophenyl)-5-chloro-4-pyrimidinecarboxylate]
other
  melting point: 136 to 137 °C
[1]; 32 g ai/ha
  Barnyardgrass plant response rating: 0
[1]; 64 g ai/ha
  Barnyardgrass plant response rating: 0
[1]; 125 g ai/ha
  Barnyardgrass plant response rating: 0
[1]; 250 g ai/ha
  Barnyardgrass plant response rating: 0
[1]; 16 g ai/ha
  Plant response rating, Barnyardgrass: 0
[2]; 32 g ai/ha
  Ducksalad plant response rating: 100
[2]; 64 g ai/ha
  Ducksalad plant response rating: 100
[2]; 125 g ai/ha
  Ducksalad plant response rating: 100
[2]; 250 g ai/ha
  Ducksalad plant response rating: 100
[2]
  Plant response rating, Ducksalad: 100
[3]; 32 g ai/ha
  Flatsedge, Rice plant response rating: 100
[3]; 64 g ai/ha
  Flatsedge, Rice plant response rating: 100
[3]; 125 g ai/ha
  Flatsedge, Rice plant response rating: 100
[3]; 250 g ai/ha
  Flatsedge, Rice plant response rating: 100
[3]
  Plant response rating, Flatsedge, Rice: 100
[4]; 32 g ai/ha
  Rice, Water Seeded plant response rating: 0
[4]; 125 g ai/ha
  Rice, Water Seeded plant response rating: 10
[4]; 250 g ai/ha
  Rice, Water Seeded plant response rating: 10
[4]
  Plant response rating, Rice, Water Seeded: 0
[5]; 32 g ai/ha
  Sedge, Umbrella plant response rating: 100
[5]; 64 g ai/ha
  Sedge, Umbrella plant response rating: 100
[5]; 125 g ai/ha
  Sedge, Umbrella plant response rating: 100
[5]; 250 g ai/ha
  Sedge, Umbrella plant response rating: 100
[5]
  Plant response rating, Sedge, Umbrella: 100
[6]; 32 g ai/ha
  Redstem plant response rating: 65
[6]; 64 g ai/ha
  Redstem plant response rating: 75
[6]; 125 g ai/ha
  Redstem plant response rating: 100
[6]; 250 g ai/ha
  Redstem plant response rating: 100
[6]
  Plant response rating, Redstem: 0
[7]; 32 g ai/ha
  Watergrass, Early plant response rating: 0
[7]; 64 g ai/ha
  Watergrass, Early plant response rating: 0
[7]; 125 g ai/ha
  Watergrass, Early plant response rating: 0
[7]; 250 g ai/ha
  Watergrass, Early plant response rating: 0
[7]
  Plant response rating, Watergrass, Early: 0
[8]; 32 g ai/ha
  Sprangletop, Brdd. plant response rating: 0
[8]; 64 g ai/ha
  Sprangletop, Brdd. plant response rating: 0
[8]; 125 g ai/ha
  Sprangletop, Brdd. plant response rating: 20
[8]; 250 g ai/ha
  Sprangletop, Brdd. plant response rating: 40
[8]
  Plant response rating, Sprangletop, Brdd.: 0
[9]; 32 g ai/ha
  Junglerice plant response rating: 0
[9]; 64 g ai/ha
  Junglerice plant response rating: 0
[9]; 125 g ai/ha
  Junglerice plant response rating: 0
[9]; 250 g ai/ha
  Junglerice plant response rating: 0
[9]
  Plant response rating, Junglerice: 0
[10]; 32 g ai/ha
  Rice, Transplanted plant response rating: 0
[10]; 64 g ai/ha
  Rice, Transplanted plant response rating: 10
[10]; 125 g ai/ha
  Rice, Transplanted plant response rating: 10
[10]; 250 g ai/ha
  Rice, Transplanted plant response rating: 20
[10]
  Plant response rating, Rice, Transplanted: 0
[11]; 32 g ai/ha
  Watergrass, Late plant response rating: 0
[11]; 64 g ai/ha
  Watergrass, Late plant response rating: 0
[11]; 125 g ai/ha
  Watergrass, Late plant response rating: 0
[11]; 250 g ai/ha
  Watergrass, Late plant response rating: 0
[11]
  Plant response rating, Watergrass, Late: 0

## Nc1nc(-c2ccc(Cl)cc2)nc(C(=O)O)c1Cl [Compound 65, 6-amino-5-chloro-2-(4-chlorophenyl)-4-pyrimidinecarboxylic acid]
other
  melting point: 158 to 160 °C
[2]; 32 g ai/ha
  Ducksalad plant response rating: 100
[2]; 64 g ai/ha
  Ducksalad plant response rating: 100
[2]; 125 g ai/ha
  Ducksalad plant response rating: 100
[2]; 250 g ai/ha
  Ducksalad plant response rating: 100
[2]
  Plant response rating, Ducksalad: 100
[3]; 32 g ai/ha
  Flatsedge, Rice plant response rating: 80
[3]; 64 g ai/ha
  Flatsedge, Rice plant response rating: 100
[3]; 125 g ai/ha
  Flatsedge, Rice plant response rating: 100
[3]; 250 g ai/ha
  Flatsedge, Rice plant response rating: 100
[3]
  Plant response rating, Flatsedge, Rice: 0
[4]; 32 g ai/ha
  Rice, Water Seeded plant response rating: 0
[4]; 64 g ai/ha
  Rice, Water Seeded plant response rating: 0
[4]; 125 g ai/ha
  Rice, Water Seeded plant response rating: 0
[4]; 250 g ai/ha
  Rice, Water Seeded plant response rating: 10
[4]
  Plant response rating, Rice, Water Seeded: 0
[5]; 32 g ai/ha
  Sedge, Umbrella plant response rating: 80
[5]; 64 g ai/ha
  Sedge, Umbrella plant response rating: 85
[5]; 125 g ai/ha
  Sedge, Umbrella plant response rating: 100
[5]; 250 g ai/ha
  Sedge, Umbrella plant response rating: 100
[5]
  Plant response rating, Sedge, Umbrella: 20
[6]; 32 g ai/ha
  Redstem plant response rating: 30
[6]; 64 g ai/ha
  Redstem plant response rating: 30
[6]; 125 g ai/ha
  Redstem plant response rating: 50
[6]; 250 g ai/ha
  Redstem plant response rating: 60
[6]
  Plant response rating, Redstem: 0
[7]; 32 g ai/ha
  Watergrass, Early plant response rating: 0
[7]; 64 g ai/ha
  Watergrass, Early plant response rating: 0
[7]; 125 g ai/ha
  Watergrass, Early plant response rating: 0
[7]; 250 g ai/ha
  Watergrass, Early plant response rating: 10
[7]
  Plant response rating, Watergrass, Early: 0
[8]; 32 g ai/ha
  Sprangletop, Brdd. plant response rating: 0
[8]; 64 g ai/ha
  Sprangletop, Brdd. plant response rating: 0
[8]; 125 g ai/ha
  Sprangletop, Brdd. plant response rating: 40
[8]; 250 g ai/ha
  Sprangletop, Brdd. plant response rating: 40
[8]
  Plant response rating, Sprangletop, Brdd.: 0
[9]; 32 g ai/ha
  Junglerice plant response rating: 0
[9]; 64 g ai/ha
  Junglerice plant response rating: 0
[9]; 125 g ai/ha
  Junglerice plant response rating: 40
[9]; 250 g ai/ha
  Junglerice plant response rating: 40
[9]
  Plant response rating, Junglerice: 0
[10]; 32 g ai/ha
  Rice, Transplanted plant response rating: 0
[10]; 64 g ai/ha
  Rice, Transplanted plant response rating: 0
[10]; 125 g ai/ha
  Rice, Transplanted plant response rating: 0
[10]; 250 g ai/ha
  Rice, Transplanted plant response rating: 0
[10]
  Plant response rating, Rice, Transplanted: 0
[11]; 32 g ai/ha
  Watergrass, Late plant response rating: 0
[11]; 64 g ai/ha
  Watergrass, Late plant response rating: 0
[11]; 125 g ai/ha
  Watergrass, Late plant response rating: 0
[11]; 250 g ai/ha
  Watergrass, Late plant response rating: 25
[11]
  Plant response rating, Watergrass, Late: 0
